Measurements: patent publication US6372208B1, “Method of reducing an immune response to a recombinant virus” (The Trustees of the University of Pennsylvania, priority 1996, dated 2002)
Read-outs that look alike come from different tables or passages of the source.

Columns and labels:
[1] = tested on: E1-deleted adenovirus (H5.010CMVlacZ, H5.010CBALP)
[2] = tested on: recombinant adenoviruses H5.010CBALP and H5.010CMVlacZ; experiment: Lung-directed adenovirus gene transfer and readministration, transgene expression by histochemistry (Example 2); type: in vivo, C57BL/6 mice; conditions: lung, readministered day 28, read day 31
Protocol: Female C57BL/6 mice (6˜8 week old) were infected with suspensions of H5.010CBALP (1×10^9 pfu in 50 μl of PBS) via the trachea at day 0 and similarly with H5.010CMVlacZ at day 28. One group of such mice was used as a control. Another group of mice were acutely depleted of CD4^+ cells by i.p. injection of antibody to CD4^+ cells (GK1.5; ATCC No. TIB207, 1:10 dilution of ascites) at the time of the initial gene therapy (days −3, 0, and +3). A third group of mice was injected with IL-12 (1 μg intratracheal or 2 μg, i.p. injections) at the time of the first administration of virus (days 0 and +1). A fourth group of mice was injected with gamma interferon. (1 μg intratracheal or 2 μg, i.p. injections) at the time of the first administration of virus (days 0 and +1).
When mice were subsequently euthanized and necropsied at days 3, 28, or 31, lung tissues were prepared for cryosections, while bronchial alveolar lavage (BAL) and mediastinal lymph nodes (MLN) were harvested for immunological assays.
The lung tissues were evaluated for ALP expression at day 3 and day 28 by histochemical staining following the procedures of Yang I, cited above. β-galactosidase expression was assayed at day 31 by X-gal histochemical staining. The results described below were obtained from the alkaline phosphatase histochemical stains (magnification ×100) or β-galactosidase X-gal stains (magnification ×100).

[3] = tested on: recombinant adenoviruses H5.010CBALP and H5.010CMVlacZ; experiment: Liver-directed adenovirus gene transfer and readministration (Example 3); type: in vivo, C57BL/6 mice; conditions: liver, readministered day 28, read day 31
Protocol: Experiments substantially identical to those described in Example 2 above were conducted in which viral vectors were administered into the blood for introduction of the transgene into the liver (rather than intratracheal delivery into the lung).
Female C57BL/6 mice (6-8 weeks old) were injected with suspensions of H5.010CBALP (1×10^9 pfu in 50 μl of PBS) i.p. at day 0 and similarly with H5.010CMVlacZ at day 28. One group of such mice was used as a control. Another group of mice was acutely depleted of CD4^+ cells by i.p. injection of antibody to CD4^+ cells (GK1.5; ATCC No. TIB207, 1:10 dilution of ascites) at the time of the initial gene therapy (days −3, 0, and +3). A third group of mice was injected with IL-12 (2 μg, i.p. injections) at the time of the first administration of virus (days 0 and +1). A fourth group of mice was injected with gamma interferon (2 μg, i.p. injections) at the time of the first administration of virus (days 0 and +1) .
When mice were subsequently euthanized and necropsied at days 3, 28, or 31, liver tissues were prepared for cryosections according to the procedures used above for lung tissue in Example 2.
The cryosection results were substantially similar for liver-directed gene therapy according to this method as for the lung-directed therapy of Example 2 above. The results described below were obtained from the alkaline phosphatase histochemical stains (magnification ×100) or β-galactosidase X-gal stains (magnification ×100).

[4] = tested on: human Ad5 recombinant vector; experiment: Neutralizing antibody to adenovirus in BAL (Hela cell lacZ transduction); type: in vivo, C57BL/6 mice; conditions: day 28, versus control mice
Protocol: BAL samples obtained from animals 28 days after primary exposure to recombinant virus were evaluated for neutralizing antibodies to adenovirus and anti-adenovirus antibody isotypes as follows. The same four groups of C57BL/6 mice, i.e., control, CD4^+ depleted, IL-12 treated and IFN-γ treated, were infected with H5.010BALP. Neutralizing antibody was measured in serially-diluted BAL samples (100 μl) which were mixed with H5.010CBlacZ (1×10^6 pfu in 20 μl), incubated for 1 hour at 37° C., and applied to 80% confluent Hela cells in 96 well plates (2×10^4 cells per well). After 60 minutes of incubation at 37° C., 100 μl of DMEM containing 20% FBS was added to each well. Cells were fixed and stained for β-galactosidase expression the following day.
(§1) The results are shown graphically in FIGS. 1A through 1C, which summarize neutralizing antibody titer, and the relative amounts (OD405) of IgG and IgA present in BAL samples.

H5.010CBlacZ = experiment: Adenovirus-specific IgG and IgA in BAL by ELISA; type: in vivo, C57BL/6 mice; conditions: day 28, versus control mice
Protocol: Adenovirus-specific antibody isotype was determined in BAL by using an enzyme-linked immunosorbent assay (ELISA). Briefly, 96-well plates were coated with 100 μl of PBS containing 5×10^9 particles of H5.010CBlacZ for 18 hours at 4° C. The wells were washed 5 times with PBS. After blocking with 200 μl of 2% BSA in PBS, the plates were rinsed once with PBS and incubated with 1:10 diluted BAL samples for 90 minutes at 4° C. Thereafter, the wells were extensively washed and refilled with 100 μl of 1:1000 diluted ALP-conjugated anti-mouse IgG or IgA (Sigma). The plates were incubated, subsequently washed 5 times, and 100 μl of the substrate solution (p-nitrophenyl phosphate, PNPP) was added to each well. Substrate conversion was stopped by the addition of 50 μl of 0.1M EDTA, and reactions were read at 405 nm.
as §1

Molecule	transgene expression ([1]; liver)	formation of neutralizing antibody ([1]; liver, at higher doses)	vector readministration ([1]; liver, at higher doses)	CD4 and CD8 T helper cell activation to adenovirus capsid protein ([1]; liver, short course at the time of virus delivery)	formation of neutralizing antibodies ([1]; lung)	transgene expression ([1]; lung)	gene transfer upon second administration of virus (lacZ) [2]	gene transfer upon second administration of virus (lacZ) [3]	neutralizing antibody in BAL [4]	virus specific IgA in BAL (H5.010CBlacZ)
O=P1(N(CCCl)CCCl)NCCCO1 (stereo not shown) [cyclophosphamide]	transgene expression was prolonged	formation of neutralizing antibody was prevented	allowing successful vector readministration	successfully interrupt both CD4 and CD8 T helper cell activation	prevented formation of neutralizing antibodies at all doses	stabilized transgene expression at high dose	–	–	–	–
gamma interferon [IFN-γ]	–	–	–	–	–	–	efficient gene transfer was accomplished upon a second administration of virus	efficient gene transfer was accomplished upon a second administration of virus	decreased as compared to the control animals not treated with cytokine, but not to the extent obtained with those treated with IL-12	decreased as compared to the control animals not treated with cytokine, but not to the extent obtained with those treated with IL-12
